# Target: HIV-1 PR (Human immunodeficiency virus type 1 group M subtype B, UniProt P04585)
# Test: HIV-protease inhibitory activity assay (FRET peptide substrate)
# Assay type: biochemical
# Conditions: Test Example 1
# In short: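 HIV-1 PR (0.83 ng) preincubated with compounds 20 min at room temperature in 0.1 mol/L NaAc, 0.5 mol/L NaCl, 1 mmol/L EDTA, 1 mmol/L DTT, 0.05% Tween 20, pH 4.8. Cleavage of HiLyte Fluor 488/QXL 520 FRET peptide (2 μmol/L) read after 60 minutes at 485/535 nm; IC50 from four-parameter logistic fit.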
row,SMILES,IC50
1,COc1ccc(S(=O)(=O)N(CC(C)C)CC(O)C(Cc2ccc(NCc3cc(C(F)(F)F)ccc3-n3nc(C(=O)O)c4c3CCC(C)(C)C4)cc2)NC(=O)OC2COC3(C)OCCC23)cc1 (stereo not drawn) [Compound I-446],2.12 nM
2,COc1ccc(S(=O)(=O)N(CC(C)C)CC(O)C(Cc2ccc(N(C)Cc3cc(-c4sc5c(c4C(=O)O)CC(C)(C)CC5)cc4ccccc34)cc2)NC(=O)OC2COC3(C)OCCC23)cc1 (stereo not drawn) [Compound I-703],4.6 nM
3,CC1(C)CCc2sc(-c3ccc(C(F)(F)F)cc3CNc3ccc(CC(NC(=O)OC4COC5OCCC45)C(O)CN(CC4CCC4)S(=O)(=O)c4ccc5c(c4)OCO5)cc3)c(C(=O)O)c2C1 (stereo not drawn) [Compound I-875],6.78 nM
4,COc1ccc(S(=O)(=O)N(CC(C)C)CC(O)C(Cc2ccc(NCc3cc(F)cc(-c4sc5c(c4C(=O)O)CC(C)(C)CC5)c3)cc2)NC(=O)OC2COC3(C)OCCC23)cc1 (stereo not drawn) [Compound I-296],1.91 nM
5,Cc1cc(OCCNc2nc3ccc(S(=O)(=O)N(CC(C)C)CC(O)C(Cc4ccccc4)NC(=O)OC4COC5(C)OCCC45)cc3s2)ccc1-c1sc2c(c1C(=O)O)CC(C)(C)CC2 (stereo not drawn) [Compound I-797],0.85 nM
6,COc1ccc(S(=O)(=O)N(CC(C)C)CC(O)C(Cc2ccc(N3CCc4ccc(-c5sc6c(c5C(=O)O)CC(C)(C)CC6)cc4C3)cc2)NC(=O)OC2COC3(C)OCCC23)cc1 (stereo not drawn) [Compound I-215],2.01 nM
7,COc1ccc(S(=O)(=O)N(CC(C)C)CC(O)C(Cc2ccc(N3C(=O)c4ccc(-c5sc6c(c5C(=O)O)CC(C)(C)CC6)cc4C3=O)cc2)NC(=O)OC2COC3(C)OCCC23)cc1 (stereo not drawn) [Compound I-621],1.84 nM
8,COc1ccc(S(=O)(=O)N(CC(C)C)CC(O)C(Cc2ccc(OCC3CCCN3c3ccc(C#N)cc3-c3sc4c(c3C(=O)O)CC(C)(C)CC4)cc2)NC(=O)OC2COC3(C)OCCC23)cc1 (stereo not drawn) [Compound I-326],9.19 nM
9,COc1ccc(S(=O)(=O)N(CC(C)C)C[C@@H](O)[C@H](Cc2ccc(NC(=O)Nc3sc4c(c3C(=O)O)CC(C)(C)CC4)cc2)NC(=O)O[C@H]2CO[C@@]3(C)OCC[C@@H]23)cc1 [Compound I-192],2.27 nM
10,COc1ccc(S(=O)(=O)N(CC(C)C)CC(O)C(Cc2ccc(OCc3ccccc3-c3sc(Cl)c(CC(C)C)c3C(=O)O)cc2)NC(=O)OC2COC3OCCC23)cc1 (stereo not drawn) [Compound I-850],1.03 nM
11,COc1ccc(S(=O)(=O)N(CC(C)C)C[C@@H](O)[C@H](Cc2ccc(COc3ccccc3-c3sc4c(c3C(=O)O)CC(C)(C)CC4)cc2)NC(=O)O[C@H]2CO[C@@]3(C)OCC[C@@H]23)cc1 [Compound I-4],1.69 nM
12,COc1ccc(S(=O)(=O)N(CC(C)C)CC(O)C(Cc2ccc(NCc3ccccc3-c3ccc4c(c3)cc(C(=O)O)n4C)cc2)NC(=O)OC2COC3(C)OCCC23)cc1 (stereo not drawn) [Compound I-899],1.46 nM
13,CC(C)CN(CC(O)C(Cc1ccc(OCc2ccccc2-c2ccccc2C(=O)N(C)C)cc1)NC(=O)OC1COC2(C)OCCC12)S(=O)(=O)c1ccc2ncsc2c1 (stereo not drawn) [Compound I-160],0.96 nM
14,COc1ccc(S(=O)(=O)N(CC(C)C)CC(O)C(Cc2ccc(NCc3cc4ccccc4cc3NC(=O)c3sc4c(c3C(=O)O)CC(C)(C)CC4)cc2)NC(=O)OC2COC3(C)OCCC23)cc1 (stereo not drawn) [Compound I-612],2.11 nM
15,COc1ccc(S(=O)(=O)N(CC(C)C)CC(O)C(Cc2ccc(N(C)Cc3nc(N4CCOCC4)sc3-c3sc4c(c3C(=O)O)CC(C)(C)CC4)cc2)NC(=O)OC2COC3(C)OCCC23)cc1 (stereo not drawn) [Compound I-757],3.02 nM
16,COc1ccc(S(=O)(=O)N(CC(C)C)CC(O)C(Cc2ccc(OCc3ccccc3-c3sc4c(c3C(=O)O)C3CC(C4)C3(C)C)cc2)NC(=O)OC2COC3OCCC23)cc1 (stereo not drawn) [Compound I-829],1.2 nM
17,COc1ccc(S(=O)(=O)N(CC(C)C)CC(O)C(Cc2ccc(N3CCC(Cc4ccccc4-c4sc5c(c4C(=O)O)CC(C)(C)CC5)C3)cc2)NC(=O)OC2COC3(C)OCCC23)cc1 (stereo not drawn) [Compound I-668],7.06 nM

row,SMILES,IC50
1,COc1ccc(S(=O)(=O)N(CC(C)C)C[C@@H](O)[C@H](Cc2ccc(OCc3ccc(-c4ccc(F)cc4F)cc3C(=O)NC(N)=O)cc2)NC(=O)O[C@H]2CO[C@@]3(C)OCC[C@@H]23)cc1 [Compound I-24],1.39 nM
2,COc1ccc(S(=O)(=O)N(CC(C)C)CC(O)C(Cc2ccc(NCC3=C(c4sc5c(c4C(=O)O)CC(C)(C)CC5)CCC(F)(F)C3)cc2)NC(=O)OC2COC3OCCC23)cc1 (stereo not drawn) [Compound I-880],4.7 nM
3,COc1ccc(S(=O)(=O)N(CC(C)C)CC(O)C(Cc2ccc(OC3CCN(c4ccc(C#N)cc4-c4sc5c(c4C(=O)O)CC(C)(C)CC5)CC3)cc2)NC(=O)OC2COC3(C)OCCC23)cc1 (stereo not drawn) [Compound I-201],10.2 nM
4,COc1ccc(S(=O)(=O)N(CC(C)C)CC(O)C(Cc2ccc(OCc3ccccc3-c3sc4c(c3C(=O)O)CC(C)(C)CC4)cc2)NC(=O)OC2COC3(C)OCC(O)C23)cc1 (stereo not drawn) [Compound I-56],1.21 nM
5,COc1ccc(S(=O)(=O)N(CC(C)C)CC(O)C(Cc2ccc(N3CCN(C(=O)c4sc5c(c4C(=O)O)CC(C)(C)CC5)CC3)cc2)NC(=O)OC2COC3(C)OCCC23)cc1 (stereo not drawn) [Compound I-224],1.96 nM
6,COc1ccc(S(=O)(=O)N(CC(C)C)CC(O)C(Cc2ccc(N(C)Cc3cc(C(F)(F)F)ccc3C(=O)Nc3sc4c(c3C(=O)O)CC(C)(C)CC4)cc2)NC(=O)OC2COC3(C)OCCC23)cc1 (stereo not drawn) [Compound I-734],15.4 nM
7,COc1ccc(S(=O)(=O)N(CC(C)C)CC(O)C(Cc2ccc(N3CC4CN(C(=O)c5sc6c(c5C(=O)O)CC(C)(C)CC6)CC4C3)cc2)NC(=O)OC2COC3(C)OCCC23)cc1 (stereo not drawn) [Compound I-223],1.97 nM
8,COc1ccc(S(=O)(=O)N(CC(C)C)CC(O)C(Cc2ccc(OC3CCN(Cc4sc5c(c4C(=O)O)CC(C)(C)CC5)C3)cc2)NC(=O)OC2COC3(C)OCCC23)cc1 (stereo not drawn) [Compound I-184],1.64 nM
9,COc1ccc(S(=O)(=O)N(CC(C)C)CC(O)C(Cc2ccc(OCc3ncccc3-c3ccccc3-c3sc4c(c3C(=O)O)CC(C)(C)CC4)cc2)NC(=O)OC2COC3(C)OCCC23)cc1 (stereo not drawn) [Compound I-110],1.67 nM
10,COc1ccc(S(=O)(=O)N(CC(C)C)CC(O)C(Cc2ccc(N(C)Cc3cc(C)ccc3C(=O)Nc3sc4c(c3C(=O)O)CC(C)(C)CC4)cc2)NC(=O)OC2COC3(C)OCCC23)cc1 (stereo not drawn) [Compound I-746],2.81 nM
11,COc1ccc(S(=O)(=O)N(CC(C)C)CC(O)C(Cc2ccc(N(CCC(C)(C)C)Cc3ccccc3-c3sc4c(c3C(=O)O)CC(C)(C)CC4)cc2)NC(=O)OC2COC3(C)OCCC23)cc1 (stereo not drawn) [Compound I-459],18.4 nM
12,CC1(C)CCc2sc(-c3ccc(CNC(=O)OC[C@]45OCC[C@H]4[C@@H](OC(=O)N[C@@H](Cc4ccccc4)[C@H](O)CN(CC(F)F)S(=O)(=O)c4ccc6ncsc6c4)CO5)cc3)c(C(=O)O)c2C1 [Compound I-32],1.37 nM
13,COc1ccc(S(=O)(=O)N(CC(C)C)CC(O)C(Cc2ccc(COc3ccc4c(c3C(=O)O)CC(C)(C)CC4)cc2)NC(=O)OC2COC3OCCC23)cc1 (stereo not drawn) [Compound I-811],0.81 nM
14,COc1ccc(S(=O)(=O)N(CC(C)C)C[C@@H](O)[C@H](Cc2ccccc2)NC(=O)O[C@H]2CO[C@@]3(CNC(=O)OCCCc4sc5c(c4C(=O)O)CC(C)(C)CC5)OCC[C@@H]23)cc1 [Compound I-34],1.28 nM
15,CC(C)CN(CC(O)C(Cc1ccc(OCc2ccc(-c3ccc(F)cc3F)nc2C(=O)O)cc1)NC(=O)OC1COC2OCCC12)S(=O)(=O)c1ccc2ncsc2c1 (stereo not drawn) [Compound I-840],0.71 nM
16,COc1ccc(S(=O)(=O)N(CC(C)C)CC(O)C(Cc2ccc(NCc3ccc4scc(C(=O)O)c4c3)cc2)NC(=O)OC2COC3(C)OCCC23)cc1 (stereo not drawn) [Compound I-314],1.93 nM

# — patent US20170253607A1, “LONG-ACTING HIV PROTEASE INHIBITOR” (Shionogi & Co., Ltd., priority 2014, published 2017)
